Source: patent US7906620B2, “Tumor associated antigen, peptides thereof, and use of same as anti-tumor vaccines” (Yeda Research and Development Co. Ltd., priority 2002, dated 2011)

What was measured:
T2 cells = experiment: In vitro priming of human CTL with prostate peptides, cytolytic assay on peptide pulsed T2 cells; format: cell-based; conditions: for existence of peripheral CTL precursors in healthy individuals: peripheral blood of healthy individuals; for activation of CTL precursors in PBMC derived from CaP patients and healthy donors: three healthy and two CaP individuals
Experimental: FIGS. 16A-16D are graphs showing in vitro priming of human CTLs. PBMC of leukopheresis samples were isolated and in vitro CTL primed with peptide pulsed autologous DC. PBMC were supplemented with IL-7 and two days later IL-2 was added and renewed every three days. Additional two cycles of re-stimulation were done every 7 days over peptide pulsed monocytes. Seven days after the last stimulation cytolytic assay was performed using peptide pulsed or non-pulsed T2 cells as target. In FIG. 16A, PBMC derived from CaP individual (donor A) were primed and re-stimulated with STEAP-3 pulsed DC/monocytes. Target cells: relevant (STEAP-3) and non-relevant peptide (HIV-derived, PAP-3) pulsed T2 cells. In FIG. 16B, PBMC derived from healthy individual (donor B) were primed and restimulated with PAP-3 pulsed DC/monocytes. Target cells: relevant (PAP-3) and non-relevant peptide (HIV-derived, STEAP-3) pulsed T2 cells. PBMC derived from healthy individual (donor C) were primed and restimulated with either PAP-3 (C-1; FIG. 16C) or STEAP-3 (C-2; FIG. 16D) pulsed DC/monocytes. Relevant (PAP-3 or STEAP-3) peptide pulsed and non-pulsed T2 cells were used as targets.
FIGS. 17A-17C are graphs showing peptide specific CTL induced in human PBMC by PAP-3 (FIG. 17A), STEAP-3 (FIG. 17B), and PSGR-1 (FIG. 17C). PBMC from a healthy donor were stimulated by peptide pulsed DC as described and CTL activity was tested on homologous peptide pulsed T2 target cells (HLA-A2 lymphoma, TAP deficient).
Finally, peripheral blood of two healthy (donors B, C) and one CaP (donor A) individuals were tested for the existence of CTL precursors (FIGS. 16A-16D). Leukopheresis products of the donors were obtained from Barzilai Medical Center (Ashkelon, Israel) according to Declaration of Helsinki Principles. PBMC were isolated by centrifugation on Ficoll-Plaque Plus gradients (Amersham, Sweden). In vitro priming of CTL was done over autologous DC that were prepared from monocytes by IL-4 and GM-CSF treatment and maturated with a IL-1β, IL-6, TNF-α and PGE2 cocktail. DC were pulsed with synthetic peptides and PBMC were supplemented with IL-7. Two days later, IL-2 was added and renewed every three days. Two additional re-stimulations were done every 7 days over peptide pulsed monocytes. Seven days after the third stimulation, lymphocytes were harvested and a cytolytic assay was performed using relevant/non-relevant peptide pulsed or non-pulsed at all T2 cells.
(§1) When human PBMC are stimulated in vitro by PAP-3 and STEAP-3 peptides, the resulting CTL can lyse target cells (T2, EL4/HHD) pulsed with PAP-3, STEAP-3 or PSGR-1 and PSGR-6 peptides. (FIGS. 15 and 16). Here, these findings were expanded and peripheral blood of three healthy and two CaP individuals was tested for the existence of CTL precursors against PAP-3, STEAP-3 and PSGR-1 peptides. Leukopheresis products of the donors were obtained from Barzilai Medical Center (Ashkelon, Israel) according to Declaration of Helsinki Principles. PBMC were isolated by centrifugation on Ficoll-Plaque Plus gradients (Amersham, Sweden). In vitro priming of CTL was done over autologous DC that were prepared from monocytes by IL-4 and GM-CSF treatment and matured with a IL-1β, IL-6, TNF-α and PGE2 cocktail. DC were pulsed with synthetic peptides and PBMC were supplemented with IL-7. Two days later, IL-2 was added and renewed every three days. Two additional re-stimulations were done every 7 days over peptide pulsed monocytes. Seven days after the third stimulation, lymphocytes were harvested and a cytolytic assay was performed using relevant/non-relevant peptide pulsed or non-pulsed T2 cells (FIGS. 17A-17C) and LNCaP (high and low HLA expressors) cells as targets (FIGS. 18A-18E). […] Monitoring of HLA-A2-peptide specific CD8+ cells for PAP-3 and STEAP-3 was also performed by MHC-peptide tetramers (tetramers of recombinant HLA-A2.1-beta2 microglobulin single chain with peptides were prepared in collaboration with Dr Yoram Reiter, Technion, Haifa). […]

LNCaP = experiment: Lysis of LNCaP tumor cells by human anti-peptide CTL; format: cell-based; conditions: LNCaP high and low HLA expressors as targets
Text: FIGS. 18A-18E are graphs showing that human anti-peptide CTL from a healthy donor kills LNCaP tumor cells. PBMC from a healthy donor (FIGS. 18A-18C) or a CaP patient (FIGS. 18D-18E) were stimulated with PAP-3 (FIGS. 18A, 18D), STEAP-3 (FIGS. 18B, 18E) or PSGR-1 (FIG. 18C) as described. LNCaP/CRL1740 (LNCaP high in HLA-A2.1 expression), LNCaP/CRL10995 (LNCaP low in HLA-A2.1 expression) and PC3 (negative for HLA-A2.1) served as targets in CTL assays.
as §1

Row | Sequence | activation of CTL precursors in PBMC derived from CaP individual (T2 cells; donor A) | existence of peripheral CTL precursors in healthy individuals (T2 cells) | activation of CTL precursors in PBMC derived from CaP patients and healthy donors (T2 cells) | lysis of tumor cells expressing endogenously processed proteins (LNCaP)
1 | LLLGTIHAL (listed as Homo sapiens) [STEAP-3, STEAP start position 262] | activated peripheral CTL precursors | 1 out of 2 | activated CTL precursors | lyse tumor cells
2 | ILLWQPIPV (listed as Homo sapiens) [PAP-3, PAP start position 135] | – | 2 out of 2 | activated CTL precursors | lyse tumor cells
